Experimental data from patent US10183938B2, “Geminal substituted quinuclidine amide compounds as agonists of α-7 nicotonic acetylcholine receptors” (AXOVANT SCIENCES GMBH, priority 2014, dated 2019).
Counter-ions that a name gives are not always drawn.

These molecules were tested against human 5-HT3 serotonin receptors (Homo sapiens (Human), UniProt P46098) (assay: [3H]BRL 43694 competition binding). Settings: CHO cell membranes, [3H]BRL 43694, Cheng Prusoff; read-out: h-5HT3 Ki.
human 5-HT3 serotonin receptors, sequence (P46098 24-478): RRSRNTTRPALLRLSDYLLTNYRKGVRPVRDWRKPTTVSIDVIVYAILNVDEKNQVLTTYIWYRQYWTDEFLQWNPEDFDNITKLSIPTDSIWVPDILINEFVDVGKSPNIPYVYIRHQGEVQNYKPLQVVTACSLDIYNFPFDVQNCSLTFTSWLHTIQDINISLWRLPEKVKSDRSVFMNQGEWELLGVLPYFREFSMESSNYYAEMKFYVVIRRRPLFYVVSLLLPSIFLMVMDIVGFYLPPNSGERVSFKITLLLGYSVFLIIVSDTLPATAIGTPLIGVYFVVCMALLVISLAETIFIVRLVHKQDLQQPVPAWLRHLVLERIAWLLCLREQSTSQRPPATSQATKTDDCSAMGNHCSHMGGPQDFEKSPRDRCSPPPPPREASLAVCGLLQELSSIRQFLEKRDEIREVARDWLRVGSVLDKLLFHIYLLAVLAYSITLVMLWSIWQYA
O=C(N[C@@H]1C2CCN(CC2)C12CC2)c1cc2cccc(-c3nccs3)c2s1 [(R)-181, (R)—N-(1′-azaspiro[cyclopropane-1,2′-bicyclo[2.2.2]octan]-3′-yl)-7-(thiazol-2-yl)benzo[b]thiophene-2-carboxamide hydrochloride] was tested, and the Ki was 83 nM. In the case of O=C(N[C@@H]1C2CCN(CC2)C12CC2)c1ccc2oc(C3CC3)cc2c1 [(R)-183, (R)-2-cyclopropyl-N-(1′-azaspiro[cyclopropane-1,2′-bicyclo[2.2.2]octan]-3′-yl)benzofuran-5-carboxamide hydrochloride], the Ki is reported as greater than 10000 nM. With CC(C)(C)c1cccc2cc(C(=O)N[C@@H]3C4CCN(CC4)C34CC4)sc12 [(R)-184, (R)-7-(tert-butyl)-N-(1′-azaspiro[cyclopropane-1,2′-bicyclo[2.2.2]octan]-3′-yl)benzo[b]thiophene-2-carboxamide hydrochloride] the Ki was 110 nM. Work on O=C(N[C@@H]1C2CCN(CC2)C12CC2)c1cc2cccc(-c3ccccc3)c2s1 [(R)-186, (R)-7-phenyl-N-(1′-azaspiro[cyclopropane-1,2′-bicyclo[2.2.2]octan]-3′-yl)benzo[b]thiophene-2-carboxamide hydrochloride] yielded a Ki of 30 nM. With CC1(c2cccc3cc(C(=O)N[C@@H]4C5CCN(CC5)C45CC5)sc23)CC1 [(R)-188, (R)-7-(1-methylcyclopropyl)-N-(1′-azaspiro[cyclopropane-1,2′-bicyclo[2.2.2]octan]-3′-yl)benzo[b]thiophene-2-carboxamide-hydrochloride] the Ki was 200 nM. For CCOc1ccc2cc(C(=O)N[C@@H]3C4CCN(CC4)C34CC4)sc2c1 [(R)-189, (R)-6-ethoxy-N-(1′-azaspiro[cyclopropane-1,2′-bicyclo[2.2.2]octan]-3′-yl)benzo[b]thiophene-2-carboxamide hydrochloride], the Ki was greater than 10000 nM. Molecule CCOc1cccc2cc(C(=O)N[C@@H]3C4CCN(CC4)C34CC4)sc12 [(R)-190, (R)-7-ethoxy-N-(1′-azaspiro[cyclopropane-1,2′-bicyclo[2.2.2]octan]-3′-yl)benzo[b]thiophene-2-carboxamide hydrochloride] has a Ki of 290 nM. CC(C)Oc1cccc2cc(C(=O)N[C@@H]3C4CCN(CC4)C34CC4)sc12 [(R)-191, (R)-7-isopropoxy-N-(1′-azaspiro[cyclopropane-1,2′-bicyclo[2.2.2]octan]-3′-yl)benzo[b]thiophene-2-carboxamide hydrochloride] gave a Ki of 160 nM. COc1c(Cl)ccc2cc(C(=O)N[C@@H]3C4CCN(CC4)C34CC4)sc12 [(R)-192, (R)-6-chloro-7-methoxy-N-(1′-azaspiro[cyclopropane-1,2′-bicyclo[2.2.2]octan]-3′-yl)benzo[b]thiophene-2-carboxamide hydrochloride] was tested, and the Ki was greater than 10000 nM. Molecule COc1c(C)ccc2cc(C(=O)N[C@@H]3C4CCN(CC4)C34CC4)sc12 [(R)-193, (R)-7-methoxy-6-methyl-N-(1′-azaspiro[cyclopropane-1,2′-bicyclo[2.2.2]octan]-3′-yl)benzo[b]thiophene-2-carboxamide hydrochloride] has a Ki of 6000 nM. In the case of O=C(N[C@@H]1C2CCN(CC2)C12CC2)c1n[nH]c2ccccc12 [(R)-194, (R)—N-(1′-azaspiro[cyclopropane-1,2′-bicyclo[2.2.2]octan]-3′-yl)-1H-indazole-3-carboxamide hydrochloride], the Ki is reported as 79 nM. Work on Cc1ccc2cc(C(=O)N[C@@H]3C4CCN(CC4)C34CC4)sc2c1C1CC1 [(R)-196, (R)-7-cyclopropyl-6-methyl-N-(1′-azaspiro[cyclopropane-1,2′-bicyclo[2.2.2]octan]-3′-yl)benzo[b]thiophene-2-carboxamide hydrochloride] yielded a Ki of 610 nM. With COc1c(F)ccc2cc(C(=O)N[C@@H]3C4CCN(CC4)C34CC4)sc12 [(R)-197, (R)-6-fluoro-7-methoxy-N-(1′-azaspiro[cyclopropane-1,2′-bicyclo[2.2.2]octan]-3′-yl)benzo[b]thiophene-2-carboxamide hydrochloride] the Ki was 2800 nM.
